{"source": "patent EP0033980A1", "about": "“Derivatives of 2-methylpropionic acid, process for their preparation and pharmaceutical compositions containing them” (SCHIAPPARELLI FARMACEUTICI S.p.A., priority 1980, dated 1981)", "tested_on": "Triglycerid- und Cholesteringehaltes im Blut", "assay": "Reduction of blood triglyceride and cholesterol content after 10 days of daily peroral treatment, versus untreated controls", "type": "in vivo", "settings": "Ratten, 10 Tage, vs. Blindversuche", "source_text": "Diese Wirkungen wurden gegenüber der in der Therapie der Hyperlipidämie (übermäßiger Lipidgehalt im Blut) und Hypercholesterinämie (übermäßiger Cholesteringehalt im Blut) verbreitet angewandten und anerkannt gut wirksamen bekannten Vergleichssubstanz 2-(4'-Chlorphenoxy)-2-me- thylpropionsäure [Clofibrat] bestimmt.\nEs wurden vorherbestimmte tägliche Dosen einer erfin-dungsgemäßen Verbindung Laboratoriumstieren (üblicherweise in Gruppen von je 6 Tiere unterteilten Ratten) peroral verabreicht, während die Vergleichssubstanz 2-(4'-Chlor- phenoxy)-2-methylpropionsäure [Clofibrat] in einser Dosis von 130 mg/kg/Tag ebenfalls peroral verabreicht wurde. Die Behandlung wurde 10 Tage fortgesetzt, dann wurden die Tiere geopfert und ihr Blut wurde gesammelt und der Bestimmung seines Triglycerid- und Cholesteringehaltes unterzogen. Die erhaltenen Ergebnisse, ausgedrückt als prozentuale Verminderung des Triglycerid- und Cholesteringehaltes im Blut (prozentuale Hemmung der Bildung des Triglycerid- und Cholesteringehaltes im Blut) gegenüber den Blindversuchen (das heißt den Ratten, welchen weder eine erfindungsgemäße Verbindung noch die Vergleichssubstanz verabreicht wurde), sind in der folgenden Tabelle zusammengestellt."}
{"smiles": "CCOC(=O)C(C)(C)Oc1ccc(-c2ccc(F)cc2F)cc1", "note": "[Beispiel 2, 2-(2\",4\"-Difluordiphenyl-4'-yloxy)-2--methylpropionsäureäthylester]", "values": [{"measurement": "Verminderung des Cholesteringehaltes in %", "setting": "peroral, 35 mg/kg/Tag", "result": 23, "unit": "%"}, {"measurement": "Verminderung des Triglyceridgehaltes in %", "setting": "peroral, 35 mg/kg/Tag", "result": 36, "unit": "%"}, {"measurement": "Verminderung des Cholesteringehaltes in %", "setting": "peroral, 50 mg/kg/Tag", "result": 30, "unit": "%"}, {"measurement": "Verminderung des Triglyceridgehaltes in %", "setting": "peroral, 50 mg/kg/Tag", "result": 29, "unit": "%"}, {"measurement": "Verminderung des Cholesteringehaltes in %", "setting": "peroral, 2,5 mg/kg/Tag", "result": 11, "unit": "%"}, {"measurement": "Verminderung des Triglyceridgehaltes in %", "setting": "peroral, 2,5 mg/kg/Tag", "result": 22, "unit": "%"}]}
